# Assay results: patent US8569000B2, “Immunoassays using antibodies specific to carbamazepine” (priority 2011, dated 2013)
# System: antibody specific to carbamazepine
# Experiment: Interference from other drugs in the carbamazepine ELISA assay
# Assay type: binding, rabbit
# Conditions: chemical tested at 10.0 μg/ml; procedures of Example 4 (ELISA); duplicate
# Description: The Carbamazepine ELISA was developed with the antibody generated from Example 3. This assay is a competitive micro-immunoassay for determination of carbamazepine in a fluid sample. Carbamazepine in the fluid sample and carbamazepine derivative linked with the enzyme (HRP)-conjugate compete for the finite sites of the antibody coated on the solid surface of the microwell. If little or no carbamazepine is present in the fluid sample, more enzyme labeled carbamazepine derivative will bind to the antibody on the solid surface. Conversely, if a large or a significant amount of carbamazepine is present in the fluid sample, less enzyme labeled carbamazepine derivative will bind to the antibody, producing less color signal. The absorbance produced is inversely proportional to the amount of carbamazepine in the fluid sample.
# Interference from other drugs was tested using 30 frequently used chemicals and medicines, at concentrations of 10.0 μg/ml.
# The samples were tested in duplicate, following the procedures used in Example 4. All 30 samples produced a negative test result. Thus, the immunoassay of the present disclosure is specific to carbamazepine.
row,Compound,Equivalent Carbamazepine Conc.
1,CN[C@@H](C)[C@H](O)c1ccccc1 [(L)-Ephedrine],<0.1 µg/mL
2,CN1C(=O)CC[C@H]1c1cccnc1 [(−)-Cotinine],<0.1 µg/mL
3,CC(=O)Oc1ccccc1C(=O)O [Acetylsalicylic Acid],<0.1 µg/mL
4,CCC1(CCC(C)C)C(=O)NC(=O)NC1=O [Amobarbital],<0.1 µg/mL
5,CC1(C)S[C@@H]2[C@H](NC(=O)[C@H](N)c3ccccc3)C(=O)N2[C@H]1C(=O)O [Ampicillin],<0.1 µg/mL
6,Cn1c(=O)c2c(ncn2C)n(C)c1=O [Caffeine],<0.1 µg/mL
7,CN(C)CCCN1c2ccccc2Sc2ccc(Cl)cc21 [Chlorpromazine],<0.1 µg/mL
8,O=C(O)C1N=C(c2ccccc2)c2cc(Cl)ccc2NC1=O (centres unmarked) [Clorazepate],<0.1 µg/mL
9,CN1C(=O)CN=C(c2ccccc2)c2cc(Cl)ccc21 [Diazepam],<0.1 µg/mL
10,COC(=O)[C@@H]1[C@H]2CC[C@@H](C[C@@H]1O)N2C [Ecgonine Methyl Ester],<0.1 µg/mL
11,CC(C(=O)O)c1cccc(Oc2ccccc2)c1 (centres unmarked) [Fenoprofen],<0.1 µg/mL
12,Cc1ccc(C)c(OCCCC(C)(C)C(=O)O)c1 [Gemfibrozil],<0.1 µg/mL
13,O=C(O)c1cc(O)ccc1O [Gentisic Acid],<0.1 µg/mL
14,COc1ccc2c3c1O[C@H]1C(=O)CC[C@H]4[C@@H](C2)N(C)CC[C@]314 [Hydrocodone],<0.1 µg/mL
15,CC(C)Cc1ccc(C(C)C(=O)O)cc1 (centres unmarked) [Ibuprofen],<0.1 µg/mL
16,CN(C)CCCN1c2ccccc2CCc2ccccc21 [Imipramine],<0.1 µg/mL
17,CCN(CC)CC(=O)Nc1c(C)cccc1C [Lidocaine],<0.1 µg/mL
18,COc1ccc2cc([C@H](C)C(=O)O)ccc2c1 [Naproxen],<0.1 µg/mL
19,NC(=O)c1cccnc1 [Niacinamide],<0.1 µg/mL
20,CNC[C@H](O)c1cccc(O)c1 [Phenylephrine],<0.1 µg/mL
21,CC(N)C(O)c1ccccc1 (centres unmarked) [Phenylpropanolamine],<0.1 µg/mL
22,CCN(CC)CCNC(=O)c1ccc(N)cc1 [Procainamide],<0.1 µg/mL
23,CCN(CC)CCOC(=O)c1ccc(N)cc1 [Procaine],<0.1 µg/mL
24,C=C[C@H]1C[N@@]2CC[C@H]1C[C@@H]2[C@@H](O)c1ccnc2ccc(OC)cc12 [Quinidine],<0.1 µg/mL
25,Cc1cc(CC(=O)O)n(C)c1C(=O)c1ccc(Cl)cc1 [Zomepirac],<0.1 µg/mL
26,NCCc1ccccc1 [beta-Phenylethylamine],<0.1 µg/mL
27,CN[C@@H](C)Cc1ccccc1 [d-Methamphetamine],<0.1 µg/mL
28,Ecgonine,<0.1 µg/mL
29,Penicillin,<0.1 µg/mL
